Assay type in all cases: cell-based
Assay [1] has as its system MRC-5 (normal human embryonic lung fibroblasts). Description: Cytotoxicity toward normal cell line MRC-5. Particulars: for IC50: MRC5, MRC-5 normal cell line, mean ± S.D. (n = 3). Here is the method: (§1) In our study, several compounds (1–4, 6–8, 10, and 12–16) were evaluated for their cytotoxicity using a panel of human cancer cell lines, including MOLT-3 (acute lymphoblastic leukemia), HepG2 (hepatocarcinoma), A549 (human lung cancer), HuCCA-1 (human chlolangiocarcinoma), HeLa (cervical carcinoma), and MDA-MB-231 (hormone-independent breast cancer) as well as a normal cell line, MRC-5 (normal human embryonic lung fibroblasts).

Assay [2] has as its system HuCCA-1 (human chlolangiocarcinoma). As to the kind of experiment: Cytotoxicity, MTT assay, HuCCA-1. Conditions: for IC50: HuCC-A1, mean ± S.D. (n = 3), MTT assay. The method, then: as §1
(§2) The cytotoxic activity toward a panel of mammalian cancer cell lines (HepG2, A549, HuCCA-1, HeLa, MDA-MB-231) were tested using the 3-(4,5-dimethylthiazol-2-yl)-2,5-diphenyltetrazolium bromide (MTT) assay, while the activity toward MOLT-3 cancer cell line was performed by the 2,3-bis-(2-methoxy-4-nitro-5-sulphenyl)-(2H)-tetrazolium-5-carboxanilide (XTT) assay. Etoposide and doxorubicin were used as positive controls (Table 4).

Assay [3] deals with MOLT-3 (acute lymphoblastic leukemia). As to the kind of experiment: Cytotoxicity, XTT assay, MOLT-3. Conditions: Homo sapiens; for IC50: mean ± S.D. (n = 3), XTT assay. The method, then: as §1, §2
In general terms: Tetrazolium dyes change colour on reduction, which living cells bring about.

The test system of assay [4] is HepG2 (hepatocarcinoma). As to the kind of experiment: Cytotoxicity, MTT assay, HepG2. Particulars: Homo sapiens; for IC50: HepG-2, mean ± S.D. (n = 3), MTT assay. Here is the method: as §1, §2
Assay [5] has as its system A549 (human lung cancer). Description: Cytotoxicity, MTT assay, A549. Particulars: for IC50: mean ± S.D. (n = 3), MTT assay. Here is the method:
as §1, §2

For assay [6], the system named is MDA-MB-231 (hormone-independent breast cancer). As to the kind of experiment: Cytotoxicity, MTT assay, MDA-MB-231. Particulars: Homo sapiens, mean ± S.D. (n = 3). Here is the method:
as §1, §2

Assay [7] concerns HeLa (cervical carcinoma). Description: Cytotoxicity, MTT assay, HeLa. Particulars: Homo sapiens, mean ± S.D. (n = 3). The method, then: as §1, §2

Molecules are shown by their SMILES.

Turning to `CC(CCC(C)(O)C1CCC2C3C(O)CC4CC(O)CCC4(C)C3CC(O)C21C)C1CC1C` (stereo not drawn) [Compound 1, 26,27-cyclo-24,27-dimethylcholestan-3α,7α,12β,20β-tetraol], the IC50 (as a rule, the point on the concentration scale where inhibition reaches its midpoint) was 40.1 ± 1.23 µM in assay [1]; 21.3 ± 1.84 µM in assay [2]; 17.9 ± 0.26 µM in assay [3]; 12.7 ± 1.67 µM in assay [4]; 20 ± 1.52 µM in assay [5].
As for `C[C@H](CC[C@](C)(O)[C@H]1CC[C@@]2(O)[C@@H]3CC[C@H]4C[C@H](O)CC[C@]4(C)[C@H]3C[C@@H](O)[C@]12C)[C@@H]1C[C@H]1C` [Compound 2, 26,27-cyclo-24,27-dimethylcholestan-3α,12β,14,20β-tetraol], the IC50 in assay [1] came out at 60.6 ± 12.8 µM; in assay [2], 37.9 ± 3.01 µM; in assay [3], 32.4 ± 1.08 µM; in assay [4], 44.8 ± 3.79 µM; in assay [5] it was 38.59 ± 0.24 µM.
For the compound `C[C@H](CC[C@](C)(O)[C@H]1CCC2[C@@H]3[C@H](O)C=C4C[C@@H](O)CC[C@]4(C)[C@H]3C[C@@H](O)[C@@]21C)[C@@H]1C[C@H]1C` (stereo partly drawn) [Compound 3, 26,27-cyclo-24,27-dimethylcholest-5-ene-3β,7α,12β,20β-tetraol], the inhibition (in general, the percentage by which the read-out fell short of the control) at 54.35 µM in assay [1] (MRC5, MRC-5, at 54.35 μM) worked out at 24.7%; in assay [5] (at 54.35 μM), 9%. Also, the IC50 in assay [2] was found to be 47.5 ± 6.96 µM; in assay [4], 44.6 ± 9.76 µM. The same compound returned an inhibition at 27.17 µM in assay [3] (at 27.17 μM) of 8%.
`COC1(OC)CC[C@@]2(C)[C@@H](C[C@@H](O)[C@@H]3[C@@H]2C[C@@H](O)[C@@]2(C)[C@H]3CC[C@@H]2[C@@](C)(O)CC[C@@H](C)[C@@H]2C[C@H]2C)C1` [Compound 4, 26,27-cyclo-24,27-dimethylcholestan-3,3-dimethoxy-7α,12β,20β-triol]: the inhibition at 24.7 µM came out at 5.45% in assay [1] (MRC5, MRC-5, at 24.70 μM) and 20.3% in assay [4] (HepG-2, at 24.70 μM). The inhibition at 12.35 µM in assay [2] (HuCC-A1, at 12.35 μM) turned out to be 0%; in assay [3] (at 12.35 μM), 0%; in assay [5] (at 12.35 μM), 2%.
Turning to `C[C@H](CC[C@](C)(O)[C@H]1CC[C@H]2[C@@H]3CC[C@H]4C[C@H](O)CC[C@]4(C)[C@H]3C[C@@H](O)[C@@]21C)[C@@H]1C[C@H]1C` [Compound 6, aragusterol I], the IC50 in assay [1] was found to be 63.4 ± 8.3 µM; in assay [2] it was 37.06 ± 0.36 µM; in assay [3], 20.1 ± 0.52 µM; in assay [4] it was 54.9 ± 2.04 µM; in assay [5] it was 34.7 ± 17.7 µM.
Consider `C[C@H](CC[C@](C)(O)[C@H]1CC[C@H]2[C@@H]3CC[C@H]4CC(=O)CC[C@]4(C)[C@H]3C[C@@H](O)[C@@]21C)[C@H]1C[C@@H]1C` [Compound 7, aragusterol B], for which the IC50 in assay [6] was 27 ± 7.79 µM; in assay [7], 11.23 ± 0.05 µM; in assay [2] it was 25.1 ± 2.27 µM; in assay [3] it was 16.3 ± 18 µM; in assay [4], 26.5 ± 5.32 µM; in assay [5] it was 23.6 ± 2 µM.
For `CC(CCC(C)(O)[C@H]1CC[C@H]2[C@@H]3[C@H](O)C[C@H]4CC(=O)CC[C@]4(C)[C@H]3C[C@@H](O)[C@]12C)C1CC1C` (stereo partly drawn) [Compound 8, xestokerol B], the IC50 in assay [1] was 90.1 ± 6.88 µM; in assay [2] it was 103 ± 2.29 µM; in assay [4], 18.2 ± 1.86 µM; in assay [5], 32.6 ± 3.64 µM. In assay [3] (at 108.70 μM), this compound registered an inhibition at 108.7 µM of 43%.
Consider `C[C@H](CC[C@@H](C)[C@H]1CC[C@H]2[C@@H]3C(=O)C=C4C[C@@H](O)CC[C@]4(C)[C@H]3CC[C@]12C)[C@@H]1C[C@H]1C` [Compound 10, 7-oxopetrosterol], for which the IC50 in assay [1] came to 44.8 ± 1.36 µM; in assay [4], 49.8 ± 3.96 µM; in assay [5] it was 52.1 ± 3.35 µM. In addition, in assay [2] (HuCC-A1, at 58.69 μM), the inhibition at 58.69 µM is 44%. The inhibition at 29.34 µM in assay [3] (at 29.34 μM) came to 2%.
On to `CC(C)CC=CC(C)(O)C1CCC2C3C(O)CC4CC(=O)CCC4(C)C3CC(O)C21C` (stereo not drawn) [Compound 12, 7α,12β,20β-trihydroxycholesta-22E-en-3-one], for which the IC50 in assay [1] came to 76.9 ± 10.7 µM; in assay [2], 66.1 ± 0.9 µM; in assay [3] it was 36.6 ± 1.11 µM; in assay [4], 56.5 ± 2.15 µM; in assay [5] it was 54.3 ± 3.84 µM.
For the compound `COC1(OC)CC[C@@]2(C)C(CC[C@H]3C4CC[C@H]([C@@](O)(CO)[C@H](O)C[C@@H](C)[C@@H]5C[C@H]5C)[C@@]4(C)[C@H](O)C[C@@H]32)C1` (stereo partly drawn) [Compound 13, 26,27-cyclo-24,27-dimethylcholestan-3,3-dimethoxy-12β,21,20α,22α-tetraol], the IC50 turned out to be 37.7 ± 10.7 µM in assay [1]; 20.8 ± 2.32 µM in assay [2]; 14.9 ± 0.25 µM in assay [3]; 12.5 ± 0.84 µM in assay [4]; 17.9 ± 2.26 µM in assay [5].
`CC1CC1C(C)CC(O)C(O)(CO)[C@H]1CC[C@H]2[C@@H]3CC[C@H]4CC(=O)CC[C@]4(C)[C@H]3C[C@@H](O)[C@]12C` (stereo partly drawn) [Compound 14, xestokerol A]: the IC50 in assay [1] turned out to be 65.9 ± 4.54 µM; in assay [2] it was 34.4 ± 1.83 µM; in assay [3], 24.4 ± 3.11 µM; in assay [4], 41.4 ± 3.24 µM; in assay [5], 23.8 ± 1.87 µM.
Take `C[C@@H]1C[C@H]1[C@H](C)C[C@@H](O)[C@@]1([C@H]2CC[C@H]3[C@@H]4CC[C@H]5CC(=O)CC[C@]5(C)[C@H]4C[C@@H](O)[C@]23C)CO1` [Compound 15, aragusterol A]: the IC50 in assay [6] worked out at 18 ± 5.74 µM; in assay [7], 6.11 ± 0.02 µM; in assay [2], 37.6 ± 1.4 µM; in assay [3] it was 12.8 ± 0.98 µM; in assay [4], 7.1 ± 4.76 µM; in assay [5], 37.93 ± 0.07 µM.
Regarding `COC1(OC)CC[C@@]2(C)C(CC[C@H]3C4CC[C@H]([C@]5([C@@H](O)C[C@@H](C)[C@@H]6C[C@H]6C)CO5)[C@@]4(C)[C@H](O)C[C@@H]32)C1` (stereo partly drawn) [Compound 16, aragusterolketal], the IC50 was found to be 49.6 ± 6.67 µM in assay [1]; 34.6 ± 3.85 µM in assay [2]; 14.6 ± 0.36 µM in assay [3]; 11.3 ± 9.29 µM in assay [4]; 29.1 ± 8.25 µM in assay [5].
In turn, `COc1cccc2c1C(=O)c1c(O)c3c(c(O)c1C2=O)C[C@@](O)(C(=O)CO)C[C@@H]3O[C@H]1C[C@H](N)[C@H](O)[C@H](C)O1` [Doxorubicin, reference compound] displayed an inhibition at 50 µM in assay [1] (MRC5, MRC-5, at 50.00 μM) of 24.9%. In addition, the IC50 in assay [6] was 1.78 ± 0.54 µM; in assay [7], 0.17 ± 0.1 µM; in assay [2], 2.24 ± 0.15 µM; in assay [4], 0.55 ± 0.12 µM; in assay [5], 0.92 ± 0.06 µM.
In the case of `COc1cc([C@@H]2c3cc4c(cc3[C@@H](O[C@@H]3O[C@@H]5CO[C@@H](C)O[C@H]5[C@H](O)[C@H]3O)[C@H]3COC(=O)[C@H]23)OCO4)cc(OC)c1O` [Etoposide, reference compound], the IC50 stood at 0.07 ± 0.005 µM in assay [3] and 31.5 ± 15.6 µM in assay [4].
